Experimental data reported in the supplement of paper PMC10307832.

Legend:
Experiment in all cases: relative viability (nuclei count vs DMSO), 5 days (fraction); higher = more cells survive
[1] = compound: O=C(CCCCCCNC(=O)c1cnc(N(c2ccccc2)c2ccccc2)nc1)NO [Ricolinostat] + CC(C)C[C@H](NC(=O)[C@H](Cc1ccccc1)NC(=O)c1cnccn1)B(O)O [Bortezomib] (partner 0.002 µM)
Summary of the method: (§1)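 Lung cancer cell lines in 1536-well plates got either a single drug or a fixed anchor-drug dose together with five library-drug doses (not always all listed) in √10 steps, by pin tool, on the day after seeding. Nuclei were counted after 5 days, and relative viability is the treated-to-vehicle ratio of nuclei counts. Values are medians of duplicate plates.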

[2] = compound: O=C(CCCCCCNC(=O)c1cnc(N(c2ccccc2)c2ccccc2)nc1)NO [Ricolinostat] + CS(=O)(=O)CCNCc1ccc(-c2ccc3ncnc(Nc4ccc(OCc5cccc(F)c5)c(Cl)c4)c3c2)o1 [Lapatinib] (partner 2 µM)
Summary of the method: as §1

[3] = compound: C1=CC=C(C(=C1)C2=CC=C(C=C2)C3=CSC4=C3C(=C(C(=O)N4)C#N)O)O + C[C@]1(O)C[C@@H](c2nc(-c3ccc4ccc(-c5ccccc5)nc4c3)c3c(N)nccn32)C1 [Linsitinib] (partner 1 µM)
Summary of the method: as §1

[4] = compound: C1=CC=C(C(=C1)C2=CC=C(C=C2)C3=CSC4=C3C(=C(C(=O)N4)C#N)O)O + Nc1ncn([C@H]2C[C@H](O)[C@@H](CO)O2)c(=O)n1 [Decitabine] (partner 2 µM)
Summary of the method: as §1

Cell Line	relative viability ([1]; first compound 0.08 µM)	relative viability ([1]; first compound 0.253 µM)	relative viability ([1]; first compound 0.8 µM)	relative viability ([1]; first compound 2.53 µM)	relative viability ([2]; first compound 0.08 µM)	relative viability ([2]; first compound 0.253 µM)	relative viability ([2]; first compound 0.8 µM)	relative viability ([2]; first compound 2.53 µM)	relative viability ([3]; first compound 0.08 µM)	relative viability ([3]; first compound 0.253 µM)	relative viability ([3]; first compound 0.8 µM)	relative viability ([3]; first compound 2.53 µM)	relative viability ([3]; first compound 8 µM)	relative viability ([4]; first compound 0.08 µM)	relative viability ([4]; first compound 0.253 µM)	relative viability ([4]; first compound 0.8 µM)	relative viability ([4]; first compound 2.53 µM)	relative viability ([4]; first compound 8 µM)
NCI-H3122	0.914	1.08	0.987	1.09	0.972	1.01	1.07	0.973	1.1	1.07	1.06	1.05	1.02	0.513	0.435	0.362	0.421	0.535
HCC-15	0.897	0.987	0.983	0.925	0.729	0.808	0.854	0.899	0.914	0.844	0.985	0.918	0.871	0.444	0.671	0.625	0.814	0.494
NCI-H2009	0.834	0.979	0.93	0.763	0.812	0.887	0.832	0.74	1.14	1.24	1.17	1.15	1.15	0.384	0.47	0.415	0.372	0.36
NCI-H23	0.793	1.14	1.16	0.993	1.16	1.25	0.998	0.773	0.614	0.58	0.679	0.603	0.402	0.305	0.33	0.337	0.327	0.312
NCI-H1734	0.758	0.954	0.958	0.827	1	1.05	1.02	0.891	0.734	0.849	0.882	1.01	0.646	0.469	0.493	0.501	0.545	0.432
NCI-H2170					0.23	0.277	0.28	0.264						0.551	0.467	0.467	0.454	0.446
NCI-H2342														0.826	0.774	0.724	0.729	0.604
HCC-366	0.906	1.11	0.904	0.639	1.02	1.02	0.918	0.363	0.819	0.786	0.795	0.657	0.451		0.46	0.343	0.332	0.358
HARA	1.05	1.02	1.1	0.638	0.503	0.676	0.659	0.411		1.68	0.998	1.07	0.774	0.592	0.769	0.596	0.548	0.459
NCI-H2087	0.895	0.54	0.806	0.456	1.07	1.05	0.921	0.698	1.14	1.04	0.946	1.08	0.966	0.279	0.31	0.284	0.259	0.254
NCI-H1650	0.184	0.195	0.193	0.205	0.577	0.72	0.6	0.752						0.456	0.535	0.496	0.384	0.367
NCI-H1563	0.754	0.758	0.837	0.787	0.898	0.927	0.97	0.834	1.16	1.06	1.11	1.23	1.31					
NCI-H1666	0.598	0.97	0.724	0.579	0.564	0.65	0.542	0.374	0.753	0.817	0.873	1	0.653	0.662	0.851	0.742	0.664	0.601
LCLC-103H	0.79	0.88	1.09	0.927					1.11	1.22	0.984	1.08	0.869	0.799	0.734	0.695	0.697	0.79
HOP-62	0.501	0.595	0.799	0.532	0.935	0.88	0.923	0.843	1.19	1.15	0.97	1.05	0.736	0.218	0.238	0.221	0.238	0.211
BEN	0.781	0.694	0.567	0.609	0.613	0.643	0.588	0.423	0.609	0.999	0.93	1.21	0.822	0.605	0.745	0.771	0.717	0.653
NCI-H1299	0.998	0.955	1.04	0.937	0.941	0.871	0.902	0.895	0.848	1	0.852	1.01	0.912					
UMC-11	0.571	0.795	0.678	0.372	0.699	0.944	0.906	0.314	0.834	0.738	1.11	1.24	0.875	0.668	1.02	0.495	0.477	0.57
NCI-H1755	0.929		0.978	0.926	0.812		1.02	1.01	0.934	1.17	0.889	1.19	0.97	0.736	0.723	0.722	0.749	0.731
SK-LU-1	0.895	1.04	0.916	0.46	0.75	0.782	0.854	0.653	1.31	1.11	1.16	1.19	1.15	0.506	0.572	0.593	0.575	0.497
NCI-H1793						0.739	0.61	0.895	0.679	1.12	0.747	0.856	0.508	0.483	0.5	0.483	0.499	0.49
NCI-H647	0.877	1.06	0.948	0.421	0.915	1.11	1.07	0.627	1.17	1.1	1.21	1.17	1.08		0.532	0.407	0.439	0.279
NCI-H1975	0.406	0.357		0.233	0.878	0.914		0.664	0.926	0.802	1.04	1.02	0.796	0.384	0.4	0.41	0.403	0.426

Cell Line	relative viability ([1]; first compound 0.08 µM)	relative viability ([1]; first compound 0.253 µM)	relative viability ([1]; first compound 0.8 µM)	relative viability ([1]; first compound 2.53 µM)	relative viability ([2]; first compound 0.08 µM)	relative viability ([2]; first compound 0.253 µM)	relative viability ([2]; first compound 0.8 µM)	relative viability ([2]; first compound 2.53 µM)	relative viability ([3]; first compound 0.08 µM)	relative viability ([3]; first compound 0.253 µM)	relative viability ([3]; first compound 0.8 µM)	relative viability ([3]; first compound 2.53 µM)	relative viability ([3]; first compound 8 µM)	relative viability ([4]; first compound 0.08 µM)	relative viability ([4]; first compound 0.253 µM)	relative viability ([4]; first compound 0.8 µM)	relative viability ([4]; first compound 2.53 µM)	relative viability ([4]; first compound 8 µM)
NCI-H1648															0.537	0.493	0.478	0.458
NCI-H2126	0.95	1.07	1.1	1.02	0.615	0.751	0.719	0.801	0.71	0.721	0.699	0.678	0.704	0.646	0.617	0.578	0.622	0.513
EBC-1	0.49	0.458	0.386	0.263	0.206	0.207	0.221	0.215	0.784	1.16	0.642	0.925	0.781					
NCI-H1651	0.941	0.865	0.918	0.984	0.6	0.702	0.731	0.636	0.807	0.9	1.02	0.868	0.788	0.538	0.639	0.548	0.593	0.464
HCC-827	1.01	0.981	0.995	1.03	0.173	0.184	0.173	0.155	1.02	1.04	0.995	0.993	0.955	0.318	0.361	0.277	0.351	0.313
NCI-H2085		1.15	0.969	0.765		0.679	0.715	0.573	0.878	0.904	0.935	1.09	0.773	0.543	0.615	0.499	0.528	0.495
EPLC-272H		0.751	0.848	0.871		0.978	1.03	0.884		1.46	1.23	1.24	0.888	0.385		0.329	0.356	0.35
NCI-H2228	0.789	0.807	0.907	0.594	0.876	0.88	1.11	0.574	0.623	0.627	0.686	0.648	0.666					
ChaGo-K-1	1	1.18	0.959	0.9										0.507	0.58	0.587	0.535	0.506
SK-MES-1					0.403	0.466	0.439	0.456	1.18	1.17	0.952	1.03	0.987	0.382	0.408	0.383	0.404	0.376
NCI-H522														0.739	0.772	0.674	0.628	0.671
Calu-6	1.08	1.01	0.982	0.957	0.926	1.03	1.01	0.785	0.95	1.1	1.06	1.01	0.786					
NCI-H358					0.311	0.505	0.501	0.519	0.868	0.742	0.69	0.914	0.595	0.205	0.23	0.205	0.2	0.177
NCI-H1703		0.299	0.261	0.172	1.03	0.928	1.06	1.07	0.803	0.446	0.589	0.507	0.76					
NCI-H1944					0.638	0.85	0.819	0.854	1.19	1.18	1.09	1.14	1.19	0.454	0.44	0.39	0.468	0.465
CAL-12T	0.814	0.833	0.816	0.937	0.326	0.751	0.628	0.668	0.636	1.12	0.762	0.907	0.787					
NCI-H1395						1.11	0.881	0.833		1.89	1.13	1.03	1.38		0.801	0.703	0.702	0.745
A549					0.977	0.887	0.859	0.72	0.635	0.606	0.509	0.521	0.393		0.315	0.207	0.306	0.211
NCI-H441	0.596	0.341	0.342	0.25					0.583	0.748	0.617	0.746	0.552	0.28	0.3	0.286	0.242	0.233
SW 900															0.452	0.467	0.459	0.446
LK-2					0.908	1.2	0.941	0.913	0.34	0.553	0.479	0.717	0.344	0.178	0.228	0.236	0.343	0.314
IA-LM	0.628	0.696	0.73	0.594		0.841	0.542	0.398	0.479	1.9	0.198	0.855	0.376					
